# Source: patent publication US6555322B1, “α2-macroglobulin receptor as a receptor for CTGF” (FibroGen, Inc., priority 1999, dated 2003)
# What was measured:
# MG63 cells [1] = experiment: Internalization and degradation of 125I-rhCTGF during binding, with additives; assay type: cell-based, human; conditions: for degraded/internalized 125I-CTGF with additive: both cultures (control and TGF-β treated)
# Procedure: Another experiment was performed in which the internalization and degradation of CTGF was followed during the time course of binding to the cells. Various additives were included in the binding medium to examine the effect(s) and specificity of CTGF binding and internalization through LRP.
# MG63 cells were plated and treated with TGF-β for 24 or 48 hours as in the previous experiment.
# LRP [2] = molecular target: T1, LRP (Mus musculus, UniProt Q91ZX7); experiment: RAP-GST competition of CTGF binding on BMS-2 cells; parameters: species or system murine
# T1 construct: endogenous in cells; host or cells: BMS2 (BMS-2) murine bone marrow stromal cells
# Procedure: In a further study, receptor associated protein (RAP), a known inhibitor of ligand binding to LRP, was prepared. Plasmid DNA containing the human RAP cDNA sequence was obtained (ATCC as the I.M.A.G.E. Consortium Clone ID 511113, Lennon et al., 1996, Genomics, 33:151-152). The RAP sequence was sub-cloned into the pGEX4T-1 vector (Pharmacia) for the synthesis of a RAP-GST (glutathione S-transferase) fusion protein in E. coli. The fusion protein was purified over glutathione-Sepharose as described (Warshawsky et al., 1993, J. Biol. Chem., 268:22046-22054), and tested as a competitor of CTGF binding.
# MG63 cells [3] = experiment: CTGF production and accumulation in medium and cell layer (Western blot, densitometry); assay type: cell-based, human; conditions: RAP 10 nM
# Procedure: To determine whether LRP was involved in the mediation of a CTGF signaling event, experiments were conducted to study the effect of anti-LRP antibodies on CTGF production and accumulation. MG63 cells were plated at 2.5×10^4 cells/cm^2 in 24 well plates in MEM with 10% FBS. The following day, the medium was changed to MEM with 0.5% FBS. Additionally, half of the wells were supplemented with 20 ng/ml TGF-β2. Some of the cells also received either anti-LRP antibodies (American Diagnostic) (3 ug/ml 3402 and 1 ug/ml 3501) or RAP (10 nM). At 15, 23, and 47 hours after exposure to these additives, medium and cell layers were harvested.
# The harvested media was then incubated with heparin-SEPHAROSE for 4 hours. The beads were washed twice with RIPA buffer and the bound fraction was eluted with SDS-PAGE sample buffer. The cell layer was washed twice with PBS, then extracted for 15 min at 4° C. with RIPA buffer. The cell layer was collected by scraping, and centrifuged to remove the insoluble material. The soluble fraction was used for SDS-PAGE analysis. Both medium and cell layer samples were run non-reduced on 12% SDS-PAGE, then blotted to nitrocellulose. The nitrocellulose membranes were incubated with a rabbit polyclonal antibody made against rhCTGF (using procedures well known in the art), the data of which is shown in FIGS. 22A and 22B.
# [4] = molecular target: T2, high Mr CTGF binding protein on BMS-2 cells (Mus musculus, UniProt Q91ZX7); experiment: Binding analysis of 125I-CTGF competition with LRP ligands on BMS-2 cells; parameters: species or system murine; conditions: 0.1 nM 125I-CTGF
# T2 construct: endogenous in cells; host or cells: BMS2 (BMS-2) murine bone marrow stromal cells
# Procedure: BMS-2 cells were incubated with 0.1 nM ^125I-CTGF in the presence of unlabeled CTGF, recombinant human apoE, low density lipoprotein purified from human plasma (LDL), or lipoprotein lipase purified from bovine milk (LpL).
# LRP [5] = molecular target: T1, LRP; experiment: Competitive binding and cross-linking of LRP ligands with 125I-CTGF on BMS-2 cells; parameters: species or system murine; conditions: 50 pM 125I-CTGF; CTGF 21.5 nM, BP5 201-218 50 μg/ml, LF 25 μg/ml, apo E 20 μg/ml, LpL 20 μg/ml
# Procedure: To examine whether ligands known to bind to LRP inhibit CTGF binding, BMS-2 cells were labeled with 50 pM ^125I-CTGF in the presence or absence of unlabeled ligand (CTGF: 21.5 nM; BP5^201-218: 50 μg/ml or […] (Campbell and Andress, 1997, Am. J. Physiol., 273:E1005-13); lactoferrin (LF): 25 μg/ml or 250 nM; apo E: 20 μg/ml or 574 nM; lipoprotein lipase (LpL): 20 μg/ml or 400 nM). The cells were cross-linked and the receptor complexes were solubilized, processed on SDS-PAGE and visualized by autoradiography.
# MG63 cells [6] = experiment: Internalization and degradation kinetics of 125I-CTGF with heparin or lactoferrin; assay type: cell-based, human; conditions: 3 μg/ml heparin or lactoferrin
# Procedure: Experiments were performed in which the internalization and degradation kinetics of CTGF were followed in the presence or absence of a known LRP ligand, lactoferrin. Kinetics were followed in the presence or absence of 3 μg/ml heparin or lactoferrin. ^125I-CTGF was bound to MG63 cells at 4° C. and free CTGF was removed by washing the cells. Fresh medium was placed on the cells, and the cells were transferred to 37° C. At each time point, the medium was removed and TCA precipitated. Degraded ^125I-CTGF was quantified by measuring the cpm in the non-precipitable fraction (see FIG. 17). In parallel experiments, ^125I-CTGF was bound to MG63 cells at 4° C. and free CTGF was removed by washing the cells. Fresh medium was placed on the cells, and they were transferred to 37° C. At each time point, the cell layer was removed by extensive trypsinization at 4° C. The cells were centrifuged and the cpm associated with the pellet, the internalized fraction, was determined (see FIG. 18).
# T1 sequence (Q91ZX7 20-4545): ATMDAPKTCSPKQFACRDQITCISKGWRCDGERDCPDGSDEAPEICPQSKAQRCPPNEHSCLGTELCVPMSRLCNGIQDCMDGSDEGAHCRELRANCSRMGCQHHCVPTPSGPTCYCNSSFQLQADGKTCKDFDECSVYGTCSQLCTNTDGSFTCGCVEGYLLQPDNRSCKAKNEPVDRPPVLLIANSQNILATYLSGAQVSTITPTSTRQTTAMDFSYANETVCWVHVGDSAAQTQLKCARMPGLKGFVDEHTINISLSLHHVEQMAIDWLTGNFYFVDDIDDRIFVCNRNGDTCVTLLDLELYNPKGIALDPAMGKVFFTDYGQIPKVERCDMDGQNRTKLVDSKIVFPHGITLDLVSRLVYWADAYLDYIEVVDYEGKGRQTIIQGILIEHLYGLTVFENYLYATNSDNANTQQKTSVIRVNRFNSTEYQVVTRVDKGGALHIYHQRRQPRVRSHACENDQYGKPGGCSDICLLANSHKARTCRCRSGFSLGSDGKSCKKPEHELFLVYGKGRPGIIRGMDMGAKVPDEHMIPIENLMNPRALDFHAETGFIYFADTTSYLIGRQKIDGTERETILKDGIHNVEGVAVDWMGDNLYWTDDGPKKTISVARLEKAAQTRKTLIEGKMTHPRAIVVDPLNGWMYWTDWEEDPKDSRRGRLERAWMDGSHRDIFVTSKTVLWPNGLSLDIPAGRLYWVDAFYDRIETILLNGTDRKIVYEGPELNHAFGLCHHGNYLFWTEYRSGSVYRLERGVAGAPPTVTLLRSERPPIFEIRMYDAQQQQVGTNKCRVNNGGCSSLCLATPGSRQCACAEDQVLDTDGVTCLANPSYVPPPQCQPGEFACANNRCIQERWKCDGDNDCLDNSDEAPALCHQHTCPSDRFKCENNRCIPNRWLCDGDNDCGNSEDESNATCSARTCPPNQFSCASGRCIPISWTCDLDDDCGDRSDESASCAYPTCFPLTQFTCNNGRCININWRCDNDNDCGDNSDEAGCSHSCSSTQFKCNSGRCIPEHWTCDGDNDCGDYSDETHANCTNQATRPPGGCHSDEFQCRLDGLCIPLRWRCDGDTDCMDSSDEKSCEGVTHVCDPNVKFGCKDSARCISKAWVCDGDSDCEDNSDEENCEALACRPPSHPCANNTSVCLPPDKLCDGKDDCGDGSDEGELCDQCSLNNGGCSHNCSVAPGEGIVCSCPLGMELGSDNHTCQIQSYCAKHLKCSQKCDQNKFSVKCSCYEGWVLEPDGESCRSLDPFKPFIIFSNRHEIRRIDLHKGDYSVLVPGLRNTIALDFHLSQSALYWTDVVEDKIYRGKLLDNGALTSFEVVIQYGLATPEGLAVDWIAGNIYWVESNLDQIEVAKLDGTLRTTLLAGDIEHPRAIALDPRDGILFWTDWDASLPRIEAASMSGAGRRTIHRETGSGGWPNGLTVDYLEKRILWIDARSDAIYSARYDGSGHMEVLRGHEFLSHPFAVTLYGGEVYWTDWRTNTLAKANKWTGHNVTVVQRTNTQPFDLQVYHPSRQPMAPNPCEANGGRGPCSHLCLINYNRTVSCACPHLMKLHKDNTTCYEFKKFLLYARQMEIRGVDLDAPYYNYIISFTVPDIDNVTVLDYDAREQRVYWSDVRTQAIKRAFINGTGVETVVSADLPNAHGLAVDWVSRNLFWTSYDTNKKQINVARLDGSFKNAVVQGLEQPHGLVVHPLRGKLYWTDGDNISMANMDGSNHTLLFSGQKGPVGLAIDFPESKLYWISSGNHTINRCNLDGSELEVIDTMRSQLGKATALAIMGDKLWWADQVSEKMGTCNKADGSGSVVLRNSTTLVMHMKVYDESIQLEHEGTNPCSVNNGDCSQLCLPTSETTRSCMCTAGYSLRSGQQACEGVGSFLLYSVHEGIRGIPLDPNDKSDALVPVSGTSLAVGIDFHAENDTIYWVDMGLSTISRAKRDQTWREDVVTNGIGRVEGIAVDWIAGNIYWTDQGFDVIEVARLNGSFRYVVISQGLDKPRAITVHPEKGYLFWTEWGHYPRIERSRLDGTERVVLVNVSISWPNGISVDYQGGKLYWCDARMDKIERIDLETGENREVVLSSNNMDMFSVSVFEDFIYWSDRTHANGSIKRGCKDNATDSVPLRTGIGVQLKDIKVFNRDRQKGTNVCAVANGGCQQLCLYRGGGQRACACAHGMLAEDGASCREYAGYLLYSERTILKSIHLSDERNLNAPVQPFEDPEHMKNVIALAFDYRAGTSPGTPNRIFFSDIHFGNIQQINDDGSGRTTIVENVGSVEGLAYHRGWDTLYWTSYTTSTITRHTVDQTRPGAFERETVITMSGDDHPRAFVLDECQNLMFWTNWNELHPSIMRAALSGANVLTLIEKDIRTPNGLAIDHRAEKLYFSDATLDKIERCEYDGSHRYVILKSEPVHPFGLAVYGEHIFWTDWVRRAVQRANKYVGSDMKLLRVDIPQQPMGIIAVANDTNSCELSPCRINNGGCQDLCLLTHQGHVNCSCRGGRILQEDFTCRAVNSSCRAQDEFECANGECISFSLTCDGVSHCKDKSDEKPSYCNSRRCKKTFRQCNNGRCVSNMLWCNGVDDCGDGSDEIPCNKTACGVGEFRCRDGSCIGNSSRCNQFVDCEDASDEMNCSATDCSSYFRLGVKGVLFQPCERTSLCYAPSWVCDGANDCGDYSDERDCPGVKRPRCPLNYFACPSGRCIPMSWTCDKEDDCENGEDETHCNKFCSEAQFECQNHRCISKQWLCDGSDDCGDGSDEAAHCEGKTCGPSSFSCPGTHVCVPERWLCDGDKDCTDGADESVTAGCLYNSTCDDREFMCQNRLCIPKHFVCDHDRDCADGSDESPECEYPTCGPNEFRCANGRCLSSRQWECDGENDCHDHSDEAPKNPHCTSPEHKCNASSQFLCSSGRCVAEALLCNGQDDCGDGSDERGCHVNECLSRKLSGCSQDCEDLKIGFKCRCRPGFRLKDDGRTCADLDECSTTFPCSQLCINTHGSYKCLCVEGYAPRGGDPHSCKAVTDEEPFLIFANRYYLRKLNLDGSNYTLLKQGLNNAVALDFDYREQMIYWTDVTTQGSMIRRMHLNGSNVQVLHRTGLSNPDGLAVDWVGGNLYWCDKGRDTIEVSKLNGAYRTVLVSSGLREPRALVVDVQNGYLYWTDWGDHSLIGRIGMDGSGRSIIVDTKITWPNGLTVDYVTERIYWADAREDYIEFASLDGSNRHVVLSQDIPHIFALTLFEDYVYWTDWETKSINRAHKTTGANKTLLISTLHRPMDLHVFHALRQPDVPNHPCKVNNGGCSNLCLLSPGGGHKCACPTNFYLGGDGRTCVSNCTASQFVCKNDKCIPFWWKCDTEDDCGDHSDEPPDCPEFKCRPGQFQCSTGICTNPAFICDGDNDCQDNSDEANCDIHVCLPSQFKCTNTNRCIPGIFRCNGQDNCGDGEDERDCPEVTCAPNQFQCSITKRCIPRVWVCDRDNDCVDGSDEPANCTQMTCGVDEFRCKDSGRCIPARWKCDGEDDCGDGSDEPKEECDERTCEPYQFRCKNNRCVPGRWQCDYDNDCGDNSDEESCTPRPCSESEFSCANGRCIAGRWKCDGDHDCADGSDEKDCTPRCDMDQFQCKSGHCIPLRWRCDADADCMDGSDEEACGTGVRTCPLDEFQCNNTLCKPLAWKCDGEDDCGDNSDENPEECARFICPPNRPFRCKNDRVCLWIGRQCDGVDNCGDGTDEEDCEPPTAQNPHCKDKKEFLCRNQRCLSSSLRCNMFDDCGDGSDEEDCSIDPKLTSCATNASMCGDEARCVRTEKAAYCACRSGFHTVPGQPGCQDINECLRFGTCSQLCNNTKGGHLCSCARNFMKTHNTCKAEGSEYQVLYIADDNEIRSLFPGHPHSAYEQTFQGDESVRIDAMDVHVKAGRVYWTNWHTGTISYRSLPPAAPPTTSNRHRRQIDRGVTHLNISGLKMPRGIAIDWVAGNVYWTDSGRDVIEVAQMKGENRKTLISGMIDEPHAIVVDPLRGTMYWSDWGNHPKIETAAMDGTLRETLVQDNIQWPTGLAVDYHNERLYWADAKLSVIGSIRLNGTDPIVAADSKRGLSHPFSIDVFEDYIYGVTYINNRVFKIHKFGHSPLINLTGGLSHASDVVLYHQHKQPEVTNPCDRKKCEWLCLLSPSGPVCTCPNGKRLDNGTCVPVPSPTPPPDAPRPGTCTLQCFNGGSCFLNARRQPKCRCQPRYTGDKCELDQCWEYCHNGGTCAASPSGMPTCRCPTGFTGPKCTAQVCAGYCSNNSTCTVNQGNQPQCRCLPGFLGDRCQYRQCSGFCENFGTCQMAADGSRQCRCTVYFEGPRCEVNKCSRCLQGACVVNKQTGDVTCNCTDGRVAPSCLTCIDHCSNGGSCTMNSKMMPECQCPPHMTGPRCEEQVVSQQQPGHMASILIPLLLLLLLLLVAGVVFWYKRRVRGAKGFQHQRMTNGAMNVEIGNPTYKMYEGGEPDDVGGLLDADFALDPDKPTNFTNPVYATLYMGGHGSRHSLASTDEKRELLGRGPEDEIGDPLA
# T2 sequence (Q91ZX7 20-4545): as above
compound,measurement,setting,value
CC(C)C[C@H](NC(=O)[C@@H](NC(=O)N[C@@H](Cc1ccccc1)C(=O)O)[C@@H]1CCN=C(N)N1)C(=O)N[C@H](C=O)Cc1ccccc1 [Chymostatin],degraded/internalized 125I-CTGF with additive,MG63 cells [1],no appreciable affect
"CCN(CC)CCCC(C)Nc1ccnc2cc(Cl)ccc12 (centres unmarked) [chloroquin, Chloroquin]","rhCTGF remaining internalized, TGF-β treated cultures","MG63 cells [1]; chloroquin treated samples, TGF-β treated cultures",~400 fmol
same,"rhCTGF remaining internalized, control cultures","MG63 cells [1]; chloroquin treated samples, control cultures",About 1000 fmoles
same,secretion of CTGF degradation products into the medium,MG63 cells [1]; in the presence of chloroquin,not secreted into the medium
"GST: GST protein by itself, control for RAP-GST",competition for CTGF binding to LRP,LRP [2],no competitive activity
RAP-GST: human receptor associated protein as glutathione S-transferase fusion protein made in E. coli; inhibitor of ligand binding to LRP,"CTGF levels in cell layer, RAP treated samples",MG63 cells [3],slightly increased levels
same,CTGF medium concentration at 15 and 23 hours,MG63 cells [3],an increase
same,CTGF medium levels at 47 hours,MG63 cells [3],returned to basal levels
same,degraded/internalized 125I-CTGF with additive,MG63 cells [1],to background levels
same,competition for CTGF binding to LRP,LRP [2],able to compete
"apolipoprotein E [apoE, reference compound]",competition with 125I-CTGF,[4],competed
same,competing the binding to the LRP receptor,LRP [5],very effective in competing
heparin [reference compound],rate of degradation of CTGF,MG63 cells [6],reduced the rate
same,rate of internalization of CTGF,MG63 cells [6],reduced the rate
